Where two headings read alike, the source gives them in different places.
Columns and labels:
CDK2/CycE = target: T1, CDK2/CycE (Homo sapiens, UniProt P24941); test: CDK2/CycE kinase assay (TR-FRET, 2 mM ATP); type: biochemical; details: 2 mM ATP (high ATP); median; read-out: CDK2/CyclinE, 2 mM ATP (high ATP), IC50 (median)
T1 construct: purchased ProQinase GmbH (Freiburg, Germany); host or cells: insect cells (Sf9)
Outline: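 GST-tagged human CDK2 and CycE from Sf9 cells, about 10 ng/ml, pre-incubated 15 min at 22 °C with compound in Tris/HCl pH 8.0 buffer. Reaction with 2 mM ATP and 0.75 µM biotinylated peptide for 25 min at 22 °C. Phospho-RB antibody TR-FRET (665/620 nm ratio) read after 1 h; data normalised to no-inhibitor and no-enzyme controls.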

[1] = system: BRCA1 mRNA expression in MDA-MB-231 cells; test: qRT-PCR assay: BRCA1 mRNA expression in MDA-MB-231; type: cell-based, human; details: median, read-out: RTqPCR-MDA-MB-231, IC50, BRCA1 (median)
Outline: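 GAPDH-normalised RT-qPCR measures the transcript after 24 h continuous compound treatment of cells seeded at 200,000/well one day earlier.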

[2] = target: T2, CDK12 (nuclear staining in CAL-120 cells) (Homo sapiens, UniProt Q9NYV4); test: CDK12 nuclear protein level: immunofluorescence/high content analysis (CAL-120); type: cell-based; details: for DC50: CAL-120 cells, 24 h, immunofluorescence, 50% reduction of nuclear CDK12 staining intensity, median, read-out: CDK12 degradation IF, DC50- [mol/l] (median); for (IC50 CDK12 high ATP) to (Degradation DC50 CDK12) ratio: ratio of IC50 CDK12 high ATP kinase assay to DC50 CDK12 degradation (IF, CAL-120)
T2 construct: endogenous in cells; host or cells: CAL-120 human breast cancer cells (DSMZ ACC 459)
Outline: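 CAL-120 cells were treated with compound for 24 h at 37 °C, fixed with PFA and immunostained for CDK12. Nuclear CDK12 intensity was quantified by automated image analysis and normalized to DMSO and control. DC50 is the concentration giving 50% reduction of nuclear staining.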

[3] = Homo sapiens, MDA-MB-231, Inhibition of BRCA1 mRNA expression in MDA-MB-231 cells

T2 sequence (Q9NYV4 whole entry): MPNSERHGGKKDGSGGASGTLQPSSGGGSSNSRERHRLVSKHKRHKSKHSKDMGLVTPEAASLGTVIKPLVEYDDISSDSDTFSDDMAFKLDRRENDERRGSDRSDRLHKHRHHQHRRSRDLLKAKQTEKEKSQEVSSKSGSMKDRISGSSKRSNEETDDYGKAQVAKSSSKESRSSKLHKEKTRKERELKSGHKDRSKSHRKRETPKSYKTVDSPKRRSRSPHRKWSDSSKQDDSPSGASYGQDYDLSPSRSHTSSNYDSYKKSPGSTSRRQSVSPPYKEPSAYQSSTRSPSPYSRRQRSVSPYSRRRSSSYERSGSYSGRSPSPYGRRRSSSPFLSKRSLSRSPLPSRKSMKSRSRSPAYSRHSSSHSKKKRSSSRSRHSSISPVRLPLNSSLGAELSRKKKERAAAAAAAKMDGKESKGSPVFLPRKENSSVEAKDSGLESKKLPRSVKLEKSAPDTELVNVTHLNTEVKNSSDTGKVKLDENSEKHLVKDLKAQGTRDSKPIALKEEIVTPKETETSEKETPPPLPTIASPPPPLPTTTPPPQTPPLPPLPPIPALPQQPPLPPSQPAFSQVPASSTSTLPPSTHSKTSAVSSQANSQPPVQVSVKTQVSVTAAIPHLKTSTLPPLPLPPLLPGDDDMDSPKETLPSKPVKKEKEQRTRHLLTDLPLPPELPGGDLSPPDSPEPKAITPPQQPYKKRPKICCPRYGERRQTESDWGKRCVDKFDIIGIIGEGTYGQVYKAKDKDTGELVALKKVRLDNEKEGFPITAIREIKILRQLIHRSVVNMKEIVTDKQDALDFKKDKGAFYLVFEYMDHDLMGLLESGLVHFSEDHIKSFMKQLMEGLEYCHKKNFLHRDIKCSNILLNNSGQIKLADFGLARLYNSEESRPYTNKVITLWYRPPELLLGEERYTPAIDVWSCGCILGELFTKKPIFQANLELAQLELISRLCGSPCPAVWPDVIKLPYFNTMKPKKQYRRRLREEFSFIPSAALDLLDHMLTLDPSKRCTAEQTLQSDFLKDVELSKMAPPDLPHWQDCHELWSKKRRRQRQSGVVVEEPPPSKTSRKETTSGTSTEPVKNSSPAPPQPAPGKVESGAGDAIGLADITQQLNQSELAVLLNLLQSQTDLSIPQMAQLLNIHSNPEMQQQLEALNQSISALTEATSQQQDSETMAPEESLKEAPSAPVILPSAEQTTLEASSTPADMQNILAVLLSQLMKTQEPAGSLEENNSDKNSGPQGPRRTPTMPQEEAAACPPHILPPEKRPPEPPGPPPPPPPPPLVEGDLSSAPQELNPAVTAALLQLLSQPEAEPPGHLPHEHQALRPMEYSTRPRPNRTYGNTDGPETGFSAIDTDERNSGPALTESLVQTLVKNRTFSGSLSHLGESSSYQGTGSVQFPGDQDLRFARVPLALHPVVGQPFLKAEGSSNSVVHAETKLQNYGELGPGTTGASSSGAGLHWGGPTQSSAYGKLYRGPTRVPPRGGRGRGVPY
T2 sequence (O75909 whole entry partner): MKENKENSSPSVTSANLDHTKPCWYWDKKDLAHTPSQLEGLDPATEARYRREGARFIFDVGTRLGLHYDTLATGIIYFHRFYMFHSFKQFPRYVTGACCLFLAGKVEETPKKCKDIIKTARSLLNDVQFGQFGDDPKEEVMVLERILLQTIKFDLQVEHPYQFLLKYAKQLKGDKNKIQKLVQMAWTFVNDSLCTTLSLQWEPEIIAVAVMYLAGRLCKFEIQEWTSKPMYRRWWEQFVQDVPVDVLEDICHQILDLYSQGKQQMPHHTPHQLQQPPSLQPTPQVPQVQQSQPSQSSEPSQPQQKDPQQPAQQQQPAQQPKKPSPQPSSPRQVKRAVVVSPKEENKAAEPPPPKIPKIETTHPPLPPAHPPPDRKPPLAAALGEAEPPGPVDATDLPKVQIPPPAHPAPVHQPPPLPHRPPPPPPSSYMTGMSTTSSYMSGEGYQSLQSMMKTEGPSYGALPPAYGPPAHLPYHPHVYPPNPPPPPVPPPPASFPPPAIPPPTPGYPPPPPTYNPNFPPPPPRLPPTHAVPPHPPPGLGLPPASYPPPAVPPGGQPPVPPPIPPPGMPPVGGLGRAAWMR

| Compound | IC50 (CDK2/CycE) | IC50 [1, 3] | DC50 [2] | (IC50 CDK12 high ATP) to (Degradation DC50 CDK12) ratio [2] | IC50 ([1]; Inhibition of BRCA1 mRNA expression in MDA-MB-231 cells) |
| --- | --- | --- | --- | --- | --- |
| Fc1cccc2[nH]c(CNc3nc(N4CCOCC4)nc4c(Cl)cnn34)nc12 [Example 361, 8-chloro-N-[(4-fluoro-1H-benzimidazol-2-yl)methyl]-2-(morpholin-4-yl)pyrazolo[1,5-a][1,3,5]triazin-4-amine] | 4340 nM | 9.02 nM | 6.4 nM | 224 | – |
| CN(CC(C)(C)O)c1nc(NCc2nc3c(F)c(Cl)ccc3[nH]2)n2ncc(Br)c2n1 [Example 374, 1-[(8-bromo-4-{[(5-chloro-4-fluoro-1H-benzimidazol-2-yl)methyl]amino}pyrazolo[1,5-a][1,3,5]triazin-2-yl)(methyl)amino]-2-methylpropan-2-ol] | 3120 nM | 2.6 nM | 1.81 nM | 85 | – |
| CN(CC(C)(C)O)c1nc(NCc2nc3c(F)c(F)ccc3[nH]2)n2ncc(Cl)c2n1 [Example 359, 1-[(8-chloro-4-{[(4,5-difluoro-1H-benzimidazol-2-yl)methyl]amino}pyrazolo[1,5-a][1,3,5]triazin-2-yl)(methyl)amino]-2-methylpropan-2-ol] | 12400 nM | 3.28 nM | 4.33 nM | 483 | – |
| FC(F)(F)Oc1ccc2[nH]c(CNc3nc(N4C[C@H]5CC[C@@H](C4)N5)nc4c(Br)cnn34)nc2c1 [Example 382, 8-bromo-2-[(1R,5S)-3,8-diazabicyclo[3.2.1]octan-3-yl]-N-{[5-(trifluoromethoxy)-1H-benzimidazol-2-yl]methyl}pyrazolo[1,5-a][1,3,5]triazin-4-amine] | 14200 nM | 28.8 nM | 79.7 nM | 10 | – |
| CC(C)c1cnn2c(NCc3ncc(-c4ccccc4)[nH]3)nc(N3CCOCC3)nc12 [Example 30, 2-(morpholin-4-yl)-N-[(5-phenyl-1H-imidazol-2-yl)methyl]-8-(propan-2-yl)pyrazolo[1,5-a][1,3,5]triazin-4-amine] | 7280 nM | 28.5 nM | 25.7 nM | 115 | – |
| Fc1cc2nc(CNc3nc(N4CC5CCC(C4)N5)nc4c(C5CC5)cnn34)[nH]c2cc1F [Example 325, 8-cyclopropyl-2-(3,8-diazabicyclo[3.2.1]octan-3-yl)-N-[(5,6-difluoro-1H-benzimidazol-2-yl)methyl]pyrazolo[1,5-a][1,5]triazin-4-amine] | > 20000 nM | 3.91 nM | 1.88 nM | 1890 | – |
| CN(CC(C)(C)O)c1nc(NCc2nc3cc(F)c(F)cc3[nH]2)n2ncc(Br)c2n1 [Example 347] | 9080 nM | 2.04 nM | 2.01 nM | 1086 | – |
| Cc1cc2nc(CNc3nc(N(C)CC(C)(C)O)nc4c(C5CC5)cnn34)[nH]c2cc1C [Example 321, 1-[(8-cyclopropyl-4-{[(5,6-dimethyl-1H-benzimidazol-2-yl)methyl]amino}pyrazolo[1,5-a][1,3,5]triazin-2-yl)(methyl)amino]-2-methylpropan-2-ol] | 1000 nM | 1.3 nM | 6.23 nM | 67 | – |
| C[C@H]1CN(C)CCN1c1nc(NCc2nc3c(F)cccc3[nH]2)n2ncc(C(F)(F)F)c2n1 [Example 388, 2-[(2S)-2,4-dimethylpiperazin-1-yl]-N-[(4-fluoro-1H-benzimidazol-2-yl)methyl]-8-(trifluoromethyl)pyrazolo[1,5-a][1,3,5]triazin-4-amine] | > 20000 nM | 40 nM | 10.4 nM | 655 | – |
| Fc1cc2nc(CNc3nc(N4CC5CCC(C4)N5)nc4c(Br)cnn34)[nH]c2cc1F [Example 355, 8-bromo-2-(3,8-diazabicyclo[3.2.1]octan-3-yl)-N-[(5,6-difluoro-1H-benzimidazol-2-yl)methyl]pyrazolo[1,5-a][1,3,5]triazin-4-amine] | > 18600 nM | 1.41 nM | 23.5 nM | 178 | – |
| Brc1cnn2c(NCc3nc4ccccc4[nH]3)nc(N3CC4CCC3CO4)nc12 (centres unmarked) [Example 352, N-[(1H-benzimidazol-2-yl)methyl]-8-bromo-2-(2-oxa-5-azabicyclo[2.2.2]octan-5-yl)pyrazolo[1,5-a][1,3,5]triazin-4-amine] | 2300 nM | 4.93 nM | 5.68 nM | 925 | – |
| CN(CC(C)(C)O)c1nc(NCc2nc3c(F)cccc3[nH]2)n2ncc(Cl)c2n1 [Example 366, 1-[(8-chloro-4-{[(4-fluoro-1H-benzimidazol-2-yl)methyl]amino}pyrazolo[1,5-a][1,3,5]triazin-2-yl)(methyl)amino]-2-methylpropan-2-ol] | 5570 nM | 27.1 nM | 9.52 nM | 190 | – |
| Cc1cc2nc(CNc3nc(N4CC5CCC(C4)N5)nc4c(Br)cnn34)[nH]c2cc1C [Example 353, 8-bromo-2-(3,8-diazabicyclo[3.2.1]octan-3-yl)-N-[(5,6-dimethyl-1H-benzimidazol-2-yl)methyl]pyrazolo[1,5-a][1,3,5]triazin-4-amine] | 2860 nM | 2.39 nM | 12.4 nM | 203 | – |
| Fc1cc2nc(CNc3nc(N4C[C@H]5CC[C@@H](C4)N5)nc4c(C5CC5)cnn34)[nH]c2cc1Cl [Example 328, N-[(6-chloro-5-fluoro-1H-benzimidazol-2-yl)methyl]-8-cyclopropyl-2-[(1R,5S)-3,8-diazabicyclo[3.2.1]octan-3-yl]pyrazolo[1,5-a][1,3,5]triazin-4-amine] | 14500 nM | 2.78 nM | 3.95 nM | 419 | – |
| Fc1c(Cl)ccc2[nH]c(CNc3nc(N4CC5CCC(C4)N5)nc4c(Br)cnn34)nc12 [Example 380, 8-bromo-N-[(5-chloro-4-fluoro-1H-benzimidazol-2-yl)methyl]-2-(3,8-diazabicyclo[3.2.1]octan-3-yl)pyrazolo[1,5-a][1,3,5]triazin-4-amine] | 9260 nM | 1 nM | 2.32 nM | 438 | – |
| FC(F)(F)c1ccc2[nH]c(CNc3nc(N4CC5CCC(C4)N5)nc4c(C5CC5)cnn34)nc2c1 [Example 327, 8-cyclopropyl-2-(3,8-diazabicyclo[3.2.1]octan-3-yl)-N-{[5-(trifluoromethyl)-1H-benzimidazol-2-yl]methyl}pyrazolo[1,5-a][1,3,5]triazin-4-amine] | > 18700 nM | 8.3 nM | 10 nM | 235 | – |
| CN1CCN(c2nc(NCc3nc4cc(C(F)(F)F)ccc4[nH]3)n3ncc(Br)c3n2)CC1 [Example 344, 8-bromo-2-(4-methylpiperazin-1-yl)-N-{[5-(trifluoromethyl)-1H-benzimidazol-2-yl]methyl}pyrazolo[1,5-a][1,3,5]triazin-4-amine] | 12400 nM | 2.34 nM | 6.69 nM | 1251 | – |
| CN1C2CCC1CN(c1nc(NCc3nc4c(F)c(F)ccc4[nH]3)n3ncc(C(F)(F)F)c3n1)C2 [Example 356, N-[(4,5-difluoro-1H-benzimidazol-2-yl)methyl]-2-(8-methyl-3,8-diazabicyclo[3.2.1]octan-3-yl)-8-(trifluoromethyl)pyrazolo[1,5-a][1,3,5]triazin-4-amine] | > 20000 nM | 5.05 nM | 6.68 nM | 734 | – |
| Brc1cnn2c(NCc3nc4ccccc4[nH]3)nc(N3C[C@H]4CC[C@@H]3CN4)nc12 (single isomer, unassigned) [Example 335, N-[(1H-benzimidazol-2-yl)methyl]-8-bromo-2-{[1R or S-(1R*,4R*)]-2,5-diazabicyclo[2.2.2]octan-2-yl}pyrazolo[1,5-a][1,3,5]triazin-4-amine] | 2800 nM | – | 8.34 nM | 798 | 12.7 nM |
| Brc1cnn2c(NCc3nc4ccccc4[nH]3)nc(N3CCN4CCC3C4)nc12 (centres unmarked) [Example 350, N-[(1H-benzimidazol-2-yl)methyl]-8-bromo-2-(1,4-diazabicyclo[3.2.1]octan-4-yl)pyrazolo[1,5-a][1,3,5]triazin-4-amine] | 3390 nM | 13.7 nM | 6.55 nM | 1190 | – |

Reference: US20230117034A1, “PYRAZOLOTRIAZINES” (Bayer Aktiengesellschaft, priority 2019, published 2023)
